Reference: US6727264B1 (Synaptic Pharmaceutical Corporation, priority 2001, dated 2004)
Where two headings read alike, the source gives them in different places.

Biological target: rat MCH-1 (Rattus norvegicus, UniProt P97639)
Experiment: Radioligand binding assay at cloned rat MCH1 receptor ([3H] Compound A)
Design: host or cells: Peak rapid 293 (Peakr293) cells, transient calcium phosphate transfection, membranes
Settings: cloned rat MCH1 receptor, 0.08 nM [3H] Compound A, read-out: Ki (nM) rMCH1

rat MCH-1, sequence (P97639 whole entry): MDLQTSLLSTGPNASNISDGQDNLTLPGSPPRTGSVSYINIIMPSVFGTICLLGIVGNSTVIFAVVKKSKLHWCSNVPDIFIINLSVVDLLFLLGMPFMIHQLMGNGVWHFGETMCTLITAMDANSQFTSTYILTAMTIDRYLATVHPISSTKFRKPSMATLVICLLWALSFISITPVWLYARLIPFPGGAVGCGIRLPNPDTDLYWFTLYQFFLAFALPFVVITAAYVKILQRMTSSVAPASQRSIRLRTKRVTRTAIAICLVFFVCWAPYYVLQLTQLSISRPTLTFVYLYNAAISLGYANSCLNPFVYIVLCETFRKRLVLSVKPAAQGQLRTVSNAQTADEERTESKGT

SMILES	Ki (Peakr293 cell membranes) [nM]	Ki (membranes from Peakr293 cells) [nM]
CC(C)C(=O)Nc1cccc(C2CCN(CCCCCC(Oc3ccc(F)cc3)c3ccc(Cl)cc3)CC2)c1 (stereo not drawn) [Example 902]	11	
CC(=O)c1cccc(O[C@H](CN2CCC(c3cccc(NC(=O)C(C)C)c3)CC2)c2ccccc2)c1 [Example 333]		568
COc1cccc2c(CCCN3CCC(c4cccc(NC(=O)C(C)C)c4)CC3)c[nH]c12 [Example 418]	51.6	
CC(C)C(=O)Nc1cccc(C2CCN(CCC(Oc3ccc(F)cc3F)c3ccc(F)cc3)CC2)c1 (stereo not drawn) [Example 146]		19.2
Cc1onc(-c2ccccc2Cl)c1C(=O)OC(CCCN1CCC(c2cccc(NC(=O)C(C)C)c2)CC1)c1ccccc1 (stereo not drawn) [Example 300, 4-{4-[3-(ISOBUTYRYLAMINO)PHENYL]-1-PIPERIDINYL}-1-PHENYLBUTYL 3-(2-CHLOROPHENYL)-5-METHYL-4-ISOXAZOLECARBOXYLATE]		7.6
CC(C)C(=O)Nc1cccc(C2CCN(CCCCCc3c(-c4ccccc4)[nH]c4ccc(OC(F)(F)F)cc34)CC2)c1 [Example 393]		9.5
COc1ccccc1-n1cc(CN2CCC(c3cccc(NC(=O)C(C)C)c3)CC2)c2ccccc21 [Example 447]	9.8	
Cc1ccc2[nH]cc(CN3CCC(c4cccc(NC(=O)C(C)C)c4)CC3)c2c1 [Example 445]	486	
CC(C)C(=O)Nc1cccc(C2CCN(Cc3c(OCC#N)ccc4ccccc34)CC2)c1 [Example 191]		649
CCn1c2ccccc2c2cc(CN3CCC(c4ccc(NC(=O)C(C)C)cc4)CC3)ccc21 [Example 98]		37.9
CC(C)C(=O)Nc1cccc(C2CCN(CCCOc3ccc(Br)cc3)CC2)c1 [Example 352]		13.3
CC(C)C(=O)Nc1cccc(C2CCN(C(C)c3csc(-c4ccccc4)n3)CC2)c1 (stereo not drawn) [Example 201]		996
COc1ccc(C(=O)CCCN2CCC(c3cccc(NC(=O)C4CC4)c3)CC2)cc1 [Example 538]	36.3	
CC(=O)c1cccc(OC(CCN2CCC(c3cccc(NC(=O)C(C)C)c3)CC2)c2ccc(F)cc2)c1 (stereo not drawn) [Example 176]		11.8
CC(C)C(=O)Nc1cccc(C2CCN(CCC[S+]([O-])c3ccccc3Br)CC2)c1 (stereo not drawn) [Example 591]	138	
CCC(=O)Nc1cccc(C2CCN(Cc3cn(-c4ccc(Cl)cc4)c4cc(Cl)ccc34)CC2)c1 [Example 475]	12.4	
CC(C)C(=O)Nc1cccc(C2CCN(Cc3ccc(-c4nc(C(C)(C)C)cs4)cc3)CC2)c1 [Example 229]		885
CC(C)C(=O)Nc1cccc(C2CCN(CCCNC(=O)Nc3ccc(F)cc3)CC2)c1 [Example 613]	34.9	
CC(C)C(=O)Nc1cccc(C2CCN(CC[C@H](NC(=O)c3cc(Cl)cc(Cl)c3)c3ccccc3)CC2)c1 [Example 306]		168
CC(C)C(=O)Nc1cccc(C2CCN(Cc3c[nH]c4ccc(Br)cc34)CC2)c1 [Example 526]	411	
CC(C)C(=O)Nc1cccc(C2CCN(CCCc3c(-c4ccccc4Cl)[nH]c4ccccc34)CC2)c1 [Example 730]	0.9	
CC(C)C(=O)Nc1cccc(C2CCN(Cc3ccc4cc[nH]c4c3)CC2)c1 [Example 868]	403	
Cc1[nH]c2ccc(Cl)cc2c1CN1CCC(c2cccc(NC(=O)C(C)C)c2)CC1 [Example 435]	215	

SMILES	Ki (Peakr293 cell membranes) [nM]	Ki (membranes from Peakr293 cells) [nM]
COc1ccccc1OC(CCCCCN1CCC(c2cccc(NC(=O)C(C)C)c2)CC1)c1ccccc1F (stereo not drawn) [Example 891]	6.5	
CC(C)C(=O)Nc1cccc(C2CCN(CCCOc3ccc(F)cc3)CC2)c1 [Example 347]		54.8
CC(C)C(=O)Nc1cccc(C2CCN(CC[C@H](NC(=O)Nc3ccc(Oc4ccccc4)cc3)c3ccccc3)CC2)c1 [Example 604]	36.8	
Cc1onc(-c2c(F)cccc2Cl)c1C(=O)NCCCN1CCC(c2cccc(NC(=O)C(C)C)c2)CC1 [Example 328]		47.6
COc1ccc(C(CCN2CCC(c3cccc(NC(=O)C(C)C)c3)CC2)Oc2ccc(Cl)cc2)cc1 (stereo not drawn) [Example 178]		119
Cc1ccc(Sc2ccc(CN3CCC(c4cccc(NC(=O)C(C)C)c4)CC3)cc2[N+](=O)[O-])cc1 [Example 262]		64.1
Cc1ccc2[nH]c(-c3ccccc3)c(CN3CCC(c4cccc(NC(=O)C(C)C)c4)CC3)c2c1 [Example 437]	552	
COc1ccc2[nH]c(C)c(CN3CCC(c4cccc(NC(=O)C(C)C)c4)CC3)c2c1 [Example 427]	248	
CC(C)C(=O)Nc1cccc(C2CCN(CCCc3c(-c4cccc([N+](=O)[O-])c4)[nH]c4ccccc34)CC2)c1 [Example 766]	7.6	
CC(C)C(=O)Nc1cccc(C2CCN(CCC(O)c3ccc(Cl)cc3)CC2)c1 (stereo not drawn) [Example 124]		33
CC(C)C(=O)Nc1cccc(C2CCN(CCCc3cc[nH]c3)CC2)c1 [Example 942]	188	
CCC(=O)Nc1cccc(C2CCN(CCCSc3ccccc3)CC2)c1 [Example 579]	131	
CC(C)C(=O)Nc1cccc(C2CCN(Cc3ccc(N(c4ccccc4)c4ccccc4)cc3)CC2)c1 [Example 114]		3.6
Cc1onc(-c2ccccc2)c1C(=O)NCCCN1CCC(c2cccc(NC(=O)C(C)C)c2)CC1 [Example 325]		29.8
CC(=O)c1cccc(O[C@H](CCN2CCC(c3cccc(N(C)C(=O)C(C)C)c3)CC2)c2ccccc2)c1 [Example 354]		81.6
Cc1ccc2[nH]c(-c3ccc(C(F)(F)F)cc3)c(CCCN3CCC(c4cccc(NC(=O)C(C)C)c4)CC3)c2c1 [Example 688]	41	
CC(C)C(=O)Nc1cccc(C2CCN(CCCCC(=O)c3ccccc3Cl)CC2)c1 [Example 673]	32.5	
CC(C)C(=O)Nc1cccc(C2CCN(CCC(Oc3ccc(C(F)(F)F)cc3)c3ccc(Br)cc3)CC2)c1 (stereo not drawn) [Example 152]		13.3
Cc1ccc2[nH]c(-c3ccccc3Cl)c(CCCN3CCC(c4cccc(NC(=O)C(C)C)c4)CC3)c2c1 [Example 736]	5.7	
CCC(=O)Nc1cccc(C2CCN(Cc3cn(-c4ccccc4)c4ccccc34)CC2)c1 [Example 464]	84.1	
CCC(=O)Nc1cccc(C2CCN(Cc3ccc4c(c3)c3ccccc3n4CC)CC2)c1 [Example 821]	12.1	
CC(C)C(=O)Nc1cccc(C2CCN(CCCCC(Oc3ccc(F)cc3)c3ccc(Cl)cc3)CC2)c1 (stereo not drawn) [Example 923]	1.3	
CC(C)C(=O)Nc1cccc(C2CCN(CCCCCC(O)c3ccc(F)cc3)CC2)c1 (stereo not drawn) [Example 817]	34.9	

SMILES	Ki (Peakr293 cell membranes) [nM]	Ki (membranes from Peakr293 cells) [nM]
CC(C)C(=O)Nc1cccc(C2CCN(CCCCCC(Oc3ccc(Br)cc3)c3ccccc3)CC2)c1 (stereo not drawn) [Example 896]	30.3	
Cc1csc2sc(CN3CCC(c4cccc(NC(=O)C(C)C)c4)CC3)c(C)c12 [Example 215, N-(3-{1-[(3,4- DIMETHYLTHIENO[2,3-B]THIEN-2-YL)METHYL]-4-PIPERIDINYL}PHENYL)-2-METHYLPROPANAMIDE]		283
CC(C)C(=O)Nc1cccc(C2CCN(CCCCC3OCCO3)CC2)c1 [Example 380]		309
Cc1cccc2c(CCCN3CCC(c4cccc(NC(=O)C(C)C)c4)CC3)c(-c3cccc(F)c3)[nH]c12 [Example 690]	5.2	
Cc1onc(-c2c(F)cccc2Cl)c1C(=O)OCCCCN1CCC(c2cccc(NC(=O)C(C)C)c2)CC1 [Example 291, 4-{4-[3-(ISOBUTYRYLAMINO)PHENYL]-1-PIPERIDINYL}BUTYL 3-(2-CHLORO-6-FLUOROPHENYL)-5-METHYL-4-ISOXAZOLECARBOXYLATE]		24.3
COc1ccc(CCCN2CCC(c3cccc(NC(=O)C(C)C)c3)CC2)cc1OC [Example 803]	299	
CC(C)C(=O)Nc1cccc(C2CCN(CCCCCC(Oc3ccc(Br)cc3)c3ccc(Cl)cc3)CC2)c1 (stereo not drawn) [Example 905]	5.9	
CC(C)C(=O)Nc1cccc(C2CCN(CCCCCC(Oc3ccc(F)cc3)c3ccccc3)CC2)c1 (stereo not drawn) [Example 909]	10	
CC(C)C(=O)Nc1cccc(C2CCN(CCCc3c(-c4cccc([N+](=O)[O-])c4)[nH]c4c3ccc3ccccc34)CC2)c1 [Example 767]	34.8	
COc1ccc(C(=O)CCCN2CCC(c3cccc(NC(=O)C(C)C)c3)CC2)cc1 [Example 944]	38.8	
CC(C)C(=O)Nc1cccc(C2CCN(CCCNC(=O)N3C(=O)OC[C@@H]3c3cc(F)cc(F)c3)CC2)c1 [Example 578]	98.8	
CC(C)C(=O)Nc1cccc(C2CCN(Cc3cn(-c4ccc(Cl)cc4)c4cc(Cl)ccc34)CC2)c1 [Example 477]	14.9	
CC(=O)c1cccc(OC(CCCCN2CCC(c3cccc(NC(=O)C(C)C)c3)CC2)c2ccc(Cl)cc2)c1 (stereo not drawn) [Example 933]	10.9	
CC(C)C(=O)Nc1cccc(C2CCN(CCNC(=O)c3coc(Oc4cc(Cl)cc(Cl)c4)c3)CC2)c1 [Example 648]	13.4	
CC(C)C(=O)Nc1cccc(C2CCN(CCC(Oc3ccc(Br)cc3)c3ccc4c(c3)CCC4)CC2)c1 (stereo not drawn) [Example 165, N-(3-{1-[3-(4- BROMOPHENOXY)-3-(2,3-DIHYDRO-1H-INDEN-5-YL)PROPYL]-4-PIPERIDINYL}PHENYL)-2-METHYLPROPANAMIDE]		6.2
CCC(=O)Nc1cccc(C2CCN(CCCCC(=O)c3ccccc3C(F)(F)F)CC2)c1 [Example 559]	62.3	
Cc1cccc2c(CCCN3CCC(c4cccc(NC(=O)C(C)C)c4)CC3)c(-c3cccc(Cl)c3)[nH]c12 [Example 722]	6.4	
CC(C)C(=O)Nc1cccc(C2CCN(CCCNC(=O)Nc3ccc(Oc4ccccc4)cc3)CC2)c1 [Example 621]	205	
CC(C)C(=O)Nc1cccc(C2CCN(CC[C@H](NC(=O)c3cccnc3Oc3ccccc3)c3ccccc3)CC2)c1 [Example 315]		11.4
CC(C)C(=O)Nc1cccc(C2CCN(CCCc3c(-c4cccc(F)c4)[nH]c4ccccc34)CC2)c1 [Example 704]	1.2	
CC(C)C(=O)Nc1cccc(C2CCN(CCCc3c(-c4ccccc4F)n(-c4ccccc4)c4ccccc34)CC2)c1 [Example 711]	90.5	
COc1ccc(C(CCN2CCC(c3cccc(NC(=O)C(C)C)c3)CC2)Oc2ccc(Br)cc2)cc1 (stereo not drawn) [Example 181]		91.9
CCCCOc1ccc2ccccc2c1CN1CCC(c2cccc(NC(=O)C(C)C)c2)CC1 [Example 189]		438
